ChEMBL document CHEMBL5321294, “Evolution of Slow-Binding Inhibitors Targeting Histone Deacetylase Isoforms” (J Med Chem, 2023)

Tests used:
Histone deacetylase 3 [1] = target: T1, Histone deacetylase 3 (Homo sapiens, UniProt O15379); assay: Binding affinity to human HDAC3 assessed as residence time
Histone deacetylase 8 [2] = target: T2, Histone deacetylase 8 (Homo sapiens, UniProt Q9BY41); assay: Binding affinity to HDAC8 (unknown origin) assessed as inhibition constant(ki,1)
T2 sequence (Q9BY41 whole entry): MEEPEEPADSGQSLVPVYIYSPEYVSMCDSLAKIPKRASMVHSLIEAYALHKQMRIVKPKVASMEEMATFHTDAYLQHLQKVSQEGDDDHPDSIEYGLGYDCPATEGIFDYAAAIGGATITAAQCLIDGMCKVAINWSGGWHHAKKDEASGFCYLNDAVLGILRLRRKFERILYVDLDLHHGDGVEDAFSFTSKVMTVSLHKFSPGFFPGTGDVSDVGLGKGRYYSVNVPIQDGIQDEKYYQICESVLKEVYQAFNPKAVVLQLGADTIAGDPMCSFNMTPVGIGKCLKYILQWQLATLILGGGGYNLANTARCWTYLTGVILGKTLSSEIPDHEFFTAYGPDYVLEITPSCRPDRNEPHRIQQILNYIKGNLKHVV

Histone deacetylase 3 [3] = target: T1, Histone deacetylase 3; assay: Binding affinity to HDAC3 (unknown origin) assessed as binding constant(k-2)
Histone deacetylase 3 [4] = target: T1, Histone deacetylase 3; assay: Binding affinity to HDAC3 (unknown origin) assessed as binding constant(k2)
Histone deacetylase 8 [5] = target: T2, Histone deacetylase 8; assay: Binding affinity to HDAC8 (unknown origin) assessed as inhibition constant
Histone deacetylase 2 [6] = target: T3, Histone deacetylase 2 (Homo sapiens, UniProt Q92769); assay: Binding affinity to human HDAC2 assessed as residence time
T3 sequence (Q92769 whole entry): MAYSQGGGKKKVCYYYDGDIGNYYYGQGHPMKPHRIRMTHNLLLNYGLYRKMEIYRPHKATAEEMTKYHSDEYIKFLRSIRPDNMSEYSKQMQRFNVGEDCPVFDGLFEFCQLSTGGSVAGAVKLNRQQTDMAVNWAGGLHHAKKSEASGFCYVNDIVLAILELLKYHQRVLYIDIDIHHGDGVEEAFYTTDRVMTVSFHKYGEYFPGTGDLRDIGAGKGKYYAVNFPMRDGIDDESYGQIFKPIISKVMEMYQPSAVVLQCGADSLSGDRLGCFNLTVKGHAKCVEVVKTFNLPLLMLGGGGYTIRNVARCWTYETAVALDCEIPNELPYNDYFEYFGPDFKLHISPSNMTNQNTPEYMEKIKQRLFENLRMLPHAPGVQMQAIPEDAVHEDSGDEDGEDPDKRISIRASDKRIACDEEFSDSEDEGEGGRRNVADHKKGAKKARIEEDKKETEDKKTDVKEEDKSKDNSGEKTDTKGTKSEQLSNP

Histone deacetylase 3 [7] = target: T1, Histone deacetylase 3; assay: Inhibition of HDAC3 (unknown origin) measured after 1 hrs by fluorescence based assay
Histone deacetylase 1 [8] = target: T4, Histone deacetylase 1 (Homo sapiens, UniProt Q13547); assay: Inhibition of HDAC1 (unknown origin) measured after 1 hrs by fluorescence based assay
T4 sequence (Q13547 whole entry): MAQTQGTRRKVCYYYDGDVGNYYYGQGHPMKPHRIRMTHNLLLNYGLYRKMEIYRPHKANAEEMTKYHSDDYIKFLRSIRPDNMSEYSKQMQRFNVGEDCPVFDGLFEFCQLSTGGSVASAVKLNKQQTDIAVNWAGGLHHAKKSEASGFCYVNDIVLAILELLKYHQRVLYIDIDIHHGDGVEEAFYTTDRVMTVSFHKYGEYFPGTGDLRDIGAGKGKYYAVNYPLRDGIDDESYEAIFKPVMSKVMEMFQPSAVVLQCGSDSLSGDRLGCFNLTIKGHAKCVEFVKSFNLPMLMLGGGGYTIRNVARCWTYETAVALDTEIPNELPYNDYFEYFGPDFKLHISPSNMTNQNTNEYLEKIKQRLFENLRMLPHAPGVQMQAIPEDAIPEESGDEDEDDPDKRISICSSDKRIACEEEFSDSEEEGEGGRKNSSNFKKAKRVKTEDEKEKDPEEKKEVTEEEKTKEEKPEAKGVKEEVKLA

Histone deacetylase 2 [9] = target: T3, Histone deacetylase 2; assay: Inhibition of HDAC2 (unknown origin) measured after 24 hrs by fluorescence based assay
Histone deacetylase 2 [10] = target: T3, Histone deacetylase 2; assay: Inhibition of HDAC2 (unknown origin) measured after 1 hrs by fluorescence based assay
Histone deacetylase 1 [11] = target: T4, Histone deacetylase 1; assay: Inhibition of HDAC1 (unknown origin) measured after 24 hrs by fluorescence based assay
Histone deacetylase 3 [12] = target: T1, Histone deacetylase 3; assay: Inhibition of HDAC3 (unknown origin) measured after 24 hrs by fluorescence based assay
Histone deacetylase 1 [13] = target: T4, Histone deacetylase 1; assay: Binding affinity to HDAC1 (unknown origin) assessed as inhibition constant
Histone deacetylase 3 [14] = target: T1, Histone deacetylase 3; assay: Binding affinity to HDAC3 (unknown origin) assessed as inhibition constant
Histone deacetylase 3 [15] = target: T1, Histone deacetylase 3
Description: Binding affinity to HDAC3 (unknown origin) using Ac-LGKac-AMC as substrate assessed as half life

Histone deacetylase 2 [16] = target: T3, Histone deacetylase 2
Description: Binding affinity to HDAC2 (unknown origin) using Ac-LGKac-AMC as substrate assessed as half life

Histone deacetylase 1 [17] = target: T4, Histone deacetylase 1; assay: Binding affinity to HDAC1 (unknown origin) assessed as binding constant (Kon)
Histone deacetylase 1 [18] = target: T4, Histone deacetylase 1; assay: Binding affinity to HDAC1 (unknown origin) assessed as dissociation constant (Koff)
Histone deacetylase 1 [19] = target: T4, Histone deacetylase 1; assay: Binding affinity to human HDAC1 assessed as half life
Histone deacetylase 2 [20] = target: T3, Histone deacetylase 2; assay: Binding affinity to human HDAC2 assessed as half life
Histone deacetylase 3 [21] = target: T1, Histone deacetylase 3; assay: Binding affinity to human HDAC3 assessed as binding rate constant (Kon)
Homo sapiens [22] = species: Homo sapiens; assay: Selectivity index, ratio of IC50 for Inhibition of human HDAC3 to Inhibition of human IC50 for HDAC2
Homo sapiens [23] = species: Homo sapiens; assay: Selectivity index, ratio of IC50 for Inhibition of human HDAC3 to IC50 for Inhibition of human HDAC1
Histone deacetylase 3 [24] = target: T1, Histone deacetylase 3; assay: Binding affinity to human HDAC3 assessed as half life
Histone deacetylase 3 [25] = target: T1, Histone deacetylase 3; assay: Binding affinity to human HDAC3 assessed as dissociation rate constant (Koff)
Histone deacetylase 1 [26] = target: T4, Histone deacetylase 1; settings: HEK293T
Homo sapiens [27] = species: Homo sapiens; assay: Selectivity ratio of Ki for human HDAC3 using Acetyl-Lys(Ac)-AMC as substrate to Ki for HDAC1 using Acetyl-Lys(Ac)-AMC as substrate
Histone deacetylase 3 [28] = target: T1, Histone deacetylase 3; assay: Binding affinity to human HDAC3 using Acetyl-Lys(Ac)-AMC as substrate assessed as binding constant (k-1)
Histone deacetylase 2 [29] = target: T3, Histone deacetylase 2; remark: listed apart in the source
Description: Binding affinity to HDAC2 (unknown origin) using Ac-LGKac-AMC as substrate assessed as residence time

Histone deacetylase 1 [30] = target: T4, Histone deacetylase 1
Description: Binding affinity to HDAC1 (unknown origin) using Ac-LGKac-AMC as substrate assessed as half life

T1 sequence (O15379 whole entry): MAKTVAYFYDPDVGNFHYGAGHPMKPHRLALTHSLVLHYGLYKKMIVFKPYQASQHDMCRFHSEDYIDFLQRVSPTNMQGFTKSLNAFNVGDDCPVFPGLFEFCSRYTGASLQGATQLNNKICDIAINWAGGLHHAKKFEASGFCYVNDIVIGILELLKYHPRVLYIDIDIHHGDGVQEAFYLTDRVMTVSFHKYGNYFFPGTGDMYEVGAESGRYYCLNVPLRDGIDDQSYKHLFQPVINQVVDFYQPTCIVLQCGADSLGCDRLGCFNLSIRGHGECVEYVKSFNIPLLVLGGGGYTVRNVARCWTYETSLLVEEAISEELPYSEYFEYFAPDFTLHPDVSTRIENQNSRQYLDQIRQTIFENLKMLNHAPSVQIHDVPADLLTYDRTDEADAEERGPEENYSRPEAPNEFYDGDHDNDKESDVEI

O=C(CCCCCCC(=O)C(F)(F)F)Nc1ccccc1
TIME (Histone deacetylase 3 [1]): 3.33 h | Ki (Histone deacetylase 8 [2]): 7.3 µM | K (Histone deacetylase 3 [3]): 5 10^-3/min | K (Histone deacetylase 3 [4]): 0.24 min⁻¹ | Ki (Histone deacetylase 8 [5]): ~0.033 µM | TIME (Histone deacetylase 2 [6]): 2.08 h

NC/C(=C\C(=O)c1ccccc1)c1ccccc1
IC50 (Histone deacetylase 3 [7]): > 50 µM | IC50 (Histone deacetylase 1 [8]): 5.96 µM | IC50 (Histone deacetylase 2 [9]): 26.4 µM | IC50 (Histone deacetylase 2 [10]): 19.6 µM | IC50 (Histone deacetylase 1 [11]): 8.65 µM | IC50 (Histone deacetylase 3 [12]): > 50 µM

CCC(=O)CCCCC[C@@H]1NC(=O)[C@H]2CCCCN2C(=O)[C@H]([C@@H](C)CC)NC(=O)[C@H](Cc2c[nH]c3ccccc23)NC1=O
Ki (Histone deacetylase 1 [13]): 0.4 µM | Ki (Histone deacetylase 3 [14]): 0.6 µM

Cc1[nH]c2ccccc2c1CCNCc1ccc(/C=C/C(=O)NO)cc1
T1/2 (Histone deacetylase 3 [15]): > 1.05 h | T1/2 (Histone deacetylase 2 [16]): > 1670 h

Nc1ccc(-c2ccncc2)cc1NC(=O)N1CCCC1
K (Histone deacetylase 1 [17]): 3080 M⁻¹ s⁻¹ | K (Histone deacetylase 1 [18]): 0.011 min⁻¹

CC(=O)Nc1ccc(C(=O)Nc2ccc(F)cc2N)cc1
T1/2 (Histone deacetylase 1 [19]): 2.5 min | TIME (Histone deacetylase 3 [1]): 1.9 h | T1/2 (Histone deacetylase 2 [20]): 0.217 h | K (Histone deacetylase 3 [21]): 5000 M⁻¹ s⁻¹ | Ratio IC50 (Homo sapiens [22]): > 17 | Ratio IC50 (Homo sapiens [23]): > 17 | T1/2 (Histone deacetylase 3 [24]): 1.32 h | K (Histone deacetylase 3 [25]): 0.009 min⁻¹ | TIME (Histone deacetylase 2 [6]): 0.3 h

Cc1ccc(NC(=O)CCCCCC(=O)Nc2ccccc2N)cc1
T1/2 (Histone deacetylase 1 [26]): 1.5 h

Nc1ccc(-c2ccccc2)cc1NC(=O)CCCCCC(=O)Nc1ccccc1
Ratio Ki (Homo sapiens [27]): 350 | Ki (Histone deacetylase 1 [13]): 0.007 µM | K (Histone deacetylase 3 [28]): 0.002 min⁻¹ | Ki (Histone deacetylase 3 [14]): 2.5 µM

CC(=O)Nc1ccc(C(=O)Nc2ccccc2N)cc1
T1/2 (Histone deacetylase 3 [15]): > 0.833 h | T1/2 (Histone deacetylase 2 [16]): > 2.32 h | T1/2 (Histone deacetylase 2 [29]): 3.33 h | T1/2 (Histone deacetylase 1 [30]): > 23.1 h
